Test results taken from patent US8431525B2, “Coelenteramide analogs” (JNC Corporation, priority 2009, dated 2013).

Key:
[1] = Fluorescence spectrum and fluorescence quantum yield of CTMD analogs at 750 nM (Example 1); assay type: physicochemical; conditions: for Fluorescence quantum yield (PB) / λmax (PB)/nm: 67 mM phosphate buffer pH 7.4, 750 nM; for Fluorescence quantum yield (PB) / λmax (PB)/nm / λmax (MeOH)/nm / Fluorescence quantum yield (MeOH): 25° C., excited at 330 nm; for Fluorescence quantum yield (PB) / Fluorescence quantum yield (MeOH): relative to quinine sulfate 0.55; for λmax (PB)/nm / λmax (MeOH)/nm: fluorescence emission; for λmax (MeOH)/nm / Fluorescence quantum yield (MeOH): methanol, 750 nM; for fluorescence properties compared with known CTMD (c-4) or h-CTMD (c-13): from TABLE 1
Procedure: The fluorescence quantum yield of each CTMD analog synthesized was determined by the following procedure. The fluorescence spectrum was measured at 25° C. using a spectrofluorometer FP-6500 of JASCO (JASCO Corp., Tokyo). Specifically, the CTMD analog was dissolved in methanol (MeOH) or in 67 mM phosphate buffer (PB) (pH 7.4) at a final concentration of 750 nM using a quartz cell (light path length of 10 mm). Measurement was performed 3 times at the excited wavelength of 330 nm, emission/excitation band width of 3 nm, response of 0.5 second and scanning rate of 100 nm/min. The average was taken as the fluorescence spectrum of the compound. The fluorescence quantum yield was determined after the spectrum was corrected.
Quinine sulfate was used as a standard for determining the fluorescence quantum yield. After quinine sulfate (Wako Pure Chemical Industries) was dissolved in 0.1N sulfuric acid aqueous solution, measurement was performed at the excitation light of 366 nm under the conditions for fluorescence measurements described above. The relative fluorescence quantum yield (fluorescence intensity) of the compound was calculated relative to the quantum yield of quinine sulfate as being 0.55.

SMILES	melting point	Fluorescence quantum yield (PB) [1]	λmax (PB)/nm [1] [nm]	λmax (MeOH)/nm [1] [nm]	Fluorescence quantum yield (MeOH) [1]	fluorescence properties compared with known CTMD (c-4) or h-CTMD (c-13) [1]
O=C(Cc1ccccc1)Nc1ncc(-c2ccc(O)cc2)nc1Cc1ccccc1 [c-13, 3-Benzyl-5-(4-hydroxyphenyl)-2-(phenylacetylamino)pyrazine]	259 to 261 °C	0.003	399	424.5	0.010	–
O=S(=O)(Cc1ccccc1)Nc1ncc(-c2ccc(O)cc2)nc1Cc1ccccc1 [c-15, 3-Benzyl-2-benzylsulfonylamino-5-(4-hydroxyphenyl)pyrazine]	144 to 147 °C (dec.)	0.137	435.5	429.5	0.066	different fluorescence properties
COc1ccc(-c2cnc(NC(=O)Cc3ccccc3)c(Cc3ccccc3)n2)cc1 [c-16, 3-Benzyl-5-(4-methoxyphenyl)-2-(phenylacetylamino)pyrazine]	197.5 to 202 °C	0.181	450	415	0.342	–
COc1ccc(-c2cnc(NC(=S)Cc3ccccc3)c(Cc3ccccc3)n2)cc1 [c-17, 3-Benzyl-5-(4-methoxyphenyl)-2-(phenylthioacetylamino)pyrazine]	45 to 47 °C	0.003	445	417.5	0.003	different fluorescence properties
COc1ccc(-c2cnc(NS(=O)(=O)Cc3ccccc3)c(Cc3ccccc3)n2)cc1 [c-18, 3-Benzyl-2-benzylsulfonylamino-5-(4-methoxyphenyl)pyrazine]	213 to 215 °C	0.147	429	416.5	0.293	different fluorescence properties
CC(=O)Oc1ccc(-c2cnc(N)c(Cc3ccccc3)n2)cc1 [c-19, 5-(4-Acetoxyphenyl)-2-amino-3-benzylpyrazine]	183.5 to 185.5 °C	–	–	–	–	–
CC(=O)Oc1ccc(-c2cnc(N(S(=O)(=O)Cc3ccccc3)S(=O)(=O)Cc3ccccc3)c(Cc3ccccc3)n2)cc1 [c-20, 5-(4-Acetoxyphenyl)-3-benzyl-2-bis(benzylsulfonyl)aminopyrazine]	84 to 86.5 °C	0.026	420	399.5	0.185	different fluorescence properties
COc1ccc(-c2cnc(N(S(=O)(=O)Cc3ccccc3)S(=O)(=O)Cc3ccccc3)c(Cc3ccccc3)n2)cc1 [c-21, 3-Benzyl-2-bis(benzylsulfonyl)amino-5-(4-methoxyphenyl)pyrazine]	78 to 80 °C	0.059	421.5	417	0.303	different fluorescence properties
COc1ccc(-c2cnc(NC(C)=O)c(Cc3ccccc3)n2)cc1 [c-24, 2-Acetylamino-3-benzyl-5-(4-methoxyphenyl)pyrazine]	–	0.199	450.5	415.5	0.345	–
CC(=O)Oc1ccc(CC(=O)Nc2ncc(-c3ccc(OC(C)=O)cc3)nc2Cc2ccccc2)cc1 [c-29, 5-(4-Acetoxyphenyl)-2-(4-acetoxyphenyl)acetylamino-3-benzylpyrazine]	225 to 227 °C	0.029	386.5	376.5	0.086	–
CC(=O)Oc1ccc(-c2cnc(NC(=O)Cc3ccccc3)c(Cc3ccccc3)n2)cc1 [c-30, 5-(4-Acetoxyphenyl)-3-benzyl-2-(phenylacetylamino)pyrazine]	228 to 231 °C	0.040	391	373.5	0.008	–
CC(=O)Oc1ccc(-c2cnc(NS(=O)(=O)Cc3ccccc3)c(Cc3ccccc3)n2)cc1 [c-32, 5-(4-Acetoxyphenyl)-3-benzyl-2-(benzylsulfonylamino)pyrazine]	240 to 241 °C	0.239	420	404	0.234	different fluorescence properties
CC(=O)Nc1ncc(-c2ccc(OC(C)=O)cc2)nc1Cc1ccccc1 [c-33, 5-(4-Acetoxyphenyl)-2-acetylamino-3-benzylpyrazine]	215.5 to 217 °C (dec.)	0.154	384	375	0.085	–
CS(=O)(=O)Nc1ncc(-c2ccc(O)cc2)nc1Cc1ccccc1 [c-34, 3-Benzyl-5-(4-hydroxyphenyl)-2-(methanesulfonylamino)pyrazine]	–	0.096	437	429	0.056	different fluorescence properties
Cc1ccc(S(=O)(=O)Nc2ncc(-c3ccc(O)cc3)nc2Cc2ccccc2)cc1 [c-35, 3-Benzyl-5-(4-hydroxyphenyl)-2-[(4-methylphenyl)sulfonylamino]pyrazine]	181 to 182.5 °C	0.107	435	430.5	0.069	different fluorescence properties
O=S(=O)(Cc1ccccc1)Nc1ncc(-c2ccccc2)nc1Cc1ccccc1 [c-37, 3-Benzyl-2-benzylsulfonylamino-5-phenylpyrazine]	207 to 208.5 °C	0.227	419.5	402.5	0.196	different fluorescence properties
CC(=O)Oc1ccc(-c2cnc(N(S(C)(=O)=O)S(C)(=O)=O)c(Cc3ccccc3)n2)cc1 [c-39, 5-(4-Acetoxyphenyl)-3-benzyl-2-bis(methanesulfonyl)aminopyrazine]	165.5 to 167 °C	0.096	419	381.5	0.079	different fluorescence properties
CC(=O)Oc1ccc(-c2cnc(N(S(=O)(=O)c3ccc([N+](=O)[O-])cc3)S(=O)(=O)c3ccc([N+](=O)[O-])cc3)c(Cc3ccccc3)n2)cc1 [c-40, 5-(4-Acetoxyphenyl)-3-benzyl-2-bis(4-nitrophenylsulfonyl)aminopyrazine]	227 to 229.5 °C (dec.)	0.021	415	407.5	0.004	different fluorescence properties
O=S(=O)(Cc1ccccc1)N(c1ncc(-c2ccccc2)nc1Cc1ccccc1)S(=O)(=O)Cc1ccccc1 [c-42, 3-Benzyl-2-bis(benzylsulfonyl)amino-5-phenylpyrazine]	71.5 to 74.5 °C	0.011	420.5	398.5	0.180	different fluorescence properties
CC(=O)Oc1ccc(-c2cnc(N(S(=O)(=O)Cc3ccc(I)cc3)S(=O)(=O)Cc3ccc(I)cc3)c(Cc3ccccc3)n2)cc1 [c-46, 5-(4-Acetoxyphenyl)-3-benzyl-2-bis(4-iodobenzylsulfonyl)aminopyrazine]	166 to 167 °C	–	–	–	–	–
